Reference: patent publication US20260232691A1, “NBD1 MODULATORS AND METHODS OF USING THE SAME” (Sionna Therapeutics Inc., priority 2023, published 2026)

Experiments:
NBD1 = assay: Aggregation analysis using differential static light scattering (DSLS), thermal stability of NBD1; format: binding, Human; details: 100 μM compound; ΔTagg = Tagg minus average Tagg of DMSO control wells; purified recombinant NBD1
Protocol: Purified recombinant NBD1 was produced using previously described methods (A. Schmidt, J. L. Mendoza, P. J. Thomas (2011) Biochemical and Biophysical Approaches to Probe CFTR Structure (365-376) M. D. Amaral, K. Kunzelmann (eds.), Cystic Fibrosis, Methods in Molecular Biology 741, Springer Science+Business Media). The effect of test compounds on thermal stability of NBD1 was evaluated by differential static light scattering (DSLS) using the Harbinger Stargazer-384 instrument (Epiphyte Three, Toronto, Canada). Test compounds were dissolved and diluted to desired concentrations in 100% DMSO. The compounds or DMSO controls (100 nL) were stamped into wells of a […] low volume optical plate (Corning Inc., Corning, NY) using the Echo 555 acoustic liquid handler (Labcyte Inc., San Jose, CA).
NBD1 protein was diluted to 0.2 mg/ml in S200 buffer (50 mM Tris-HCl, 150 mM NaCl, 5 mM MgCl2, 2 mM ATP, 2 mM DTT, pH7.6) containing 1% glycerol. 10 uL of protein solution was aliquoted into the 384-well plate harboring the test compounds and 10 uL mineral oil was overlayed onto the protein solution, using the epMotion robotic liquid handler (Eppendorf North America, Hauppauge, NY). After placing into the Stargazer instrument, the plate was heated at 1° C. per minute to 70° C. Images were captured from 25° C. to 70° C. every 0.5° C. At the end of the experiment run, instrument software integrated image files and analyzed data automatically. A […] regression curve was generated for each well, representing the increase in light scattering over time. A temperature of aggregation (Tagg) was calculated based on the inflection point of the curve. To better compare data across experiments the average Tagg for DMSO control wells was calculated and subtracted from values for wells containing compounds to obtain a “ΔTagg” value. These ΔTagg values reflect stabilizing efficacy of the compounds.

[1] = biological target: T1, CFTR (primary human bronchial epithelial cells from a ΔF508 homozygous CF donor, CF-HBE cells) (Homo sapiens, UniProt P13569, DEL508-508); assay: TECC24 recording of CFTR-mediated transepithelial chloride transport, AUC fold over DMSO; format: cell-based; details: test agent AUC of forskolin-stimulated IEQ divided by vehicle (DMSO) AUC, 48 hours incubation
T1 construct: Primary human bronchial epithelial cells from a ΔF508 homozygous CF donor; host or cells: primary human bronchial epithelial cells (CF-HBE), ΔF508/ΔF508 donor
T1 sequence (P13569 with tags, fused parts or gaps DEL508-508): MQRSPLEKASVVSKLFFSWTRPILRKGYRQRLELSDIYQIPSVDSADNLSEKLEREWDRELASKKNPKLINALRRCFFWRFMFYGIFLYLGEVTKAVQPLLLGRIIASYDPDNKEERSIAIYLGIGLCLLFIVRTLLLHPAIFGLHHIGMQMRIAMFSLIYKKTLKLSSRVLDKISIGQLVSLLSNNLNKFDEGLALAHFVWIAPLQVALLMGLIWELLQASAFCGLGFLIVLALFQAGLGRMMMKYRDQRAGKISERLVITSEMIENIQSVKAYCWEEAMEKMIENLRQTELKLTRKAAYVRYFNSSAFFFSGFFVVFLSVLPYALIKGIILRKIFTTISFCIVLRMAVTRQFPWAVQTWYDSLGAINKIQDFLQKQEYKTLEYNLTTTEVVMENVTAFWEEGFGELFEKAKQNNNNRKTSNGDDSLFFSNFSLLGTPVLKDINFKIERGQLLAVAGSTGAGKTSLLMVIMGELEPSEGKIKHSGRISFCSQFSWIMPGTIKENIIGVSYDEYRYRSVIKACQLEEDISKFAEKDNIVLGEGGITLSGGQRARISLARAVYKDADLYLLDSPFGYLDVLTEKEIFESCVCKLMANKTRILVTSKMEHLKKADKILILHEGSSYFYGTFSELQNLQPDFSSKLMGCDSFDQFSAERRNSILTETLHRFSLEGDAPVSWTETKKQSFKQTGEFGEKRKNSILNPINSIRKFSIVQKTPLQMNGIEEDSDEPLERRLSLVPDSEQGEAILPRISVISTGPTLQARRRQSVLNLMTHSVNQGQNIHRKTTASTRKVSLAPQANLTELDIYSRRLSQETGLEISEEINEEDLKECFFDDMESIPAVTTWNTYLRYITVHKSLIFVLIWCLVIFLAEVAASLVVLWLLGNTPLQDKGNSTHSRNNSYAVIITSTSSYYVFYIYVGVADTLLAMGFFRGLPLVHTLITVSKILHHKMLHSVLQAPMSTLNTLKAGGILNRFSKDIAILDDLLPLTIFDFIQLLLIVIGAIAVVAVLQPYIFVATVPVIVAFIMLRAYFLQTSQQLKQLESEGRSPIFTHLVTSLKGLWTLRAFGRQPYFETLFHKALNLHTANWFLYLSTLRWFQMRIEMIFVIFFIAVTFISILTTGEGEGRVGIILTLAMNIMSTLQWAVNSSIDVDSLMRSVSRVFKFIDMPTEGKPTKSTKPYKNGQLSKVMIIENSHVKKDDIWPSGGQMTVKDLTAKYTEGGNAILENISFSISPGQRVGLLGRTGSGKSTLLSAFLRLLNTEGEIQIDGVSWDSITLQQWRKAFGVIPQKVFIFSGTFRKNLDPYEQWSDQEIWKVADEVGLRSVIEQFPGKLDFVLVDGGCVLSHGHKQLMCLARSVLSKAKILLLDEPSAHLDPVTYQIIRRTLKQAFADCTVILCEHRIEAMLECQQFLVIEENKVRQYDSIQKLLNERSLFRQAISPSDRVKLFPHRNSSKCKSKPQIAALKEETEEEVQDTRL
Protocol: The effects of a test agent on CFTR-mediated transepithelial chloride transport was measured using TECC24 recording analysis. Test agents were solubilized in DMSO. Solubilized test agents were mixed with incubation medium containing DMEM/F12, Ultroser G (2%; Crescent Chemical, catalog #67042), Hyclone Fetal Clone II (2%; GE Healthcare, catalog #SH30066.02), bovine brain extract (0.25%; Lonza, catalog #CC-4098), insulin ([…]), IL-13 (10 ng/mL), hydrocortisone (20 nM), transferrin ([…]), triiodothyronine (500 nM), ethanolamine (250 nM), epinephrine (1.5 μM), phosphoethanolamine (250 nM), and retinoic acid (10 nM). Primary human bronchial epithelial cells from a ΔF508 homozygous CF donor (CF-HBE cells; from University of North Carolina Cystic Fibrosis Tissue Procurement Center), grown on Transwell HTS 24-well cell culture inserts (Costar, catalog #3378), were exposed to test agents or controls dissolved in incubation medium. The CF-HBE cells were cultured at 36.5° C. for 48 hours before TECC24 recordings were performed in the presence or absence of test agent, a positive control or vehicle (DMSO).
Following incubation, the transwell cell culture inserts containing the test agent or control-treated CF-HBE cells were loaded onto a TECC24 apparatus (TECC v7 or MTECC v2; EP Design) to record the transepithelial voltage (VT) and resistance (TEER) using 4 AgCl electrodes per well configured in current-clamp mode. The apical and basolateral bath solutions both contained (in mM) 140 NaCl, 5 KCl, 2 CaCl2), 1 MgCl2, 10 Hepes, and 10 glucose (adjusted to pH 7.4 with NaOH). To inhibit basal Na+ absorption, the ENaC inhibitor benzamil (10 μM) was added to the bath. Then, the adenylate cyclase activator, forskolin (10 μM), was added to the bath to activate CFTR. The forskolin-stimulated Cl—transport was halted by addition of CFTR inhibitor-172 (20 μM) to the bath at the end of the experiment to confirm specificity. VT and TEER recordings were digitally acquired at routine intervals using TECC or MTECC software (EP Design). VT and TEER were transformed into equivalent transepithelial Cl—current (IEQ), and the Area Under the Curve (AUC) of the IEQ time course between forskolin and CFTR inhibitor-172 addition is generated using Excel (Microsoft). Efficacy is expressed as the ratio of the test agent AUC divided by vehicle AUC. EC50s based on AUC are generated using the non-linear regression log(agonist) vs. response function in Prism software (Graphpad) with HillSlope fixed=1.
If a test agent increased the AUC of the forskolin-stimulated IEQ relative to vehicle in CF-HBE cells, and this increase was inhibited by CFTR inhibitor-172, then the test agent was considered a CFTR corrector.

Row | Structure (SMILES) | DSLS NBD1/3D Human Stability delta-T (° C.) @ 100 (μM) (NBD1) | TECC24 @ 10 uM over DMSO [1]
1 | C[C@@H](c1cccc(CC(=O)O)c1F)c1cnc2n1CCc1ccc(Oc3c(F)cc4[nH]ccc4c3F)cc1-2 (single isomer, unassigned) [Example 1] | A (A: T ≥ 8° C.) | –
2 | C[C@H](c1cccc(CC(=O)O)c1F)c1cnc2n1CCc1ccc(Oc3c(F)cc4[nH]ccc4c3F)cc1-2 (single isomer, unassigned) [Example 2] | A (A: T ≥ 8° C.) | –
3 | C[C@@H](c1cccc(CCC(=O)O)c1F)c1cnc2n1CCc1ccc(Oc3c(F)cc4[nH]ccc4c3F)cc1-2 (single isomer, unassigned) [Example 5] | B (B: 4-8° C.) | C (“C” refers to AUC @10 uM <= 4)
4 | C[C@H](c1cccc(CCC(=O)O)c1F)c1cnc2n1CCc1ccc(Oc3c(F)cc4[nH]ccc4c3F)cc1-2 (single isomer, unassigned) [Example 6] | A (A: T ≥ 8° C.) | A (“A” refers to AUC @10 uM >= 12)
5 | CC(c1nc2n(n1)CC(O)COc1ccc(Oc3c(F)cc4[nH]ccc4c3F)cc1-2)c1cccc(CCC(=O)O)c1F (single isomer, unassigned) [Example 13, 3-[3-[1-[14-[(4,6-difluoro-1H-indol-5-yl)oxy]-8-hydroxy-10-oxa-3,5,6-triazatricyclo[9.4.0.02,6]pentadeca-1(15),2,4,11,13-pentaen-4-yl]ethyl]-2-fluoro-phenyl]propanoic acid] | A (A: T ≥ 8° C.) | C (“C” refers to AUC @10 uM <= 4)
6 | CC(c1nc2n(n1)CC(O)COc1ccc(Oc3c(F)cc4[nH]ccc4c3F)cc1-2)c1cccc(CCC(=O)O)c1F (single isomer, unassigned) [Example 14, 3-[3-[1-[14-[(4,6-difluoro-1H-indol-5-yl)oxy]-8-hydroxy-10-oxa-3,5,6-triazatricyclo[9.4.0.02,6]pentadeca-1(15),2,4,11,13-pentaen-4-yl]ethyl]-2-fluoro-phenyl]propanoic acid] | A (A: T ≥ 8° C.) | B (“B” refers to AUC @ 10 uM between 4-12)
7 | CC(c1nc2n(n1)CCOc1ccc(Oc3c(F)cc4[nH]ccc4c3F)cc1-2)c1cccc(CCC(=O)O)c1F (single isomer, unassigned) [Example 15, 3-[3-[1-[10-[(4,6-difluoro-1H-indol-5-yl)oxy]-5,6-dihydro-[1,2,4]triazolo[1,5-d][1,4]benzoxazepin-2-yl]ethyl]-2-fluoro-phenyl]propanoic acid] | A (A: T ≥ 8° C.) | A (“A” refers to AUC @10 uM >= 12)
8 | CC(c1nc2n(n1)CCOc1ccc(Oc3c(F)cc4[nH]ccc4c3F)cc1-2)c1cccc(CCC(=O)O)c1F (single isomer, unassigned) [Example 16, 3-[3-[1-[10-[(4,6-difluoro-1H-indol-5-yl)oxy]-5,6-dihydro-[1,2,4]triazolo[1,5-d][1,4]benzoxazepin-2-yl]ethyl]-2-fluoro-phenyl]propanoic acid] | C (C: ≤ 4° C.) | –
9 | CC(c1cccc(CC(=O)O)c1F)c1cnc2c3cc(Oc4c(F)cc5[nH]ccc5c4F)ccc3ccn12 (stereo not shown) [Example 3, 2-(3-(1-(9-((4,6-difluoro-1H-indol-5-yl)oxy)imidazo[2,1-a]isoquinolin-3-yl)ethyl)-2-fluorophenyl)acetic acid] | A (A: T ≥ 8° C.) | A (“A” refers to AUC @10 uM >= 12)
10 | O=C(O)CCc1cccc(Cc2nc3n(n2)Cc2ccc(Oc4c(F)cc5[nH]ccc5c4F)cc2-3)c1F [Example 4, 3-(3-((8-((4,6-difluoro-1H-indol-5-yl)oxy)-5H-triazolo[5,1-a]isoindol-2-yl)methyl)-2-fluorophenyl)propanoic acid] | B (B: 4-8° C.) | B (“B” refers to AUC @ 10 uM between 4-12)
11 | CC(c1cccc(CCC(=O)O)c1F)c1cnc2c3cc(Oc4c(F)cc5[nH]ccc5c4F)ccc3ccn12 (stereo not shown) [Example 7, 3-(3-(1-(9-((4,6-difluoro-1H-indol-5-yl)oxy)imidazo[2,1-a]isoquinolin-3-yl)ethyl)-2-fluorophenyl)propanoic acid] | A (A: T ≥ 8° C.) | –
12 | CC(c1cn2c(n1)-c1cc(Oc3c(F)cc4[nH]ccc4c3F)ccc1CCC2)c1cccc(CCC(=O)O)c1F (stereo not shown) [Example 8, 3-(3-(1-(10-((4,6-difluoro-1H-indol-5-yl)oxy)-6,7-dihydro-5H-benzo[c]imidazo[1,2-a]azepin-2-yl)ethyl)-2-fluorophenyl)propanoic acid] | A (A: T ≥ 8° C.) | –
13 | CC(c1nc2n(n1)CCCc1ccc(Oc3c(F)cc4[nH]ccc4c3F)cc1-2)c1cccc(CCC(=O)O)c1F (stereo not shown) [Example 9, 3-(3-(1-(10-((4,6-difluoro-1H-indol-5-yl)oxy)-6,7-dihydro-5H-benzo[c][1,2,4]triazolo[1,5-a]azepin-2-yl)ethyl)-2-fluorophenyl)propanoic acid] | B (B: 4-8° C.) | –
14 | COC(=O)CCc1cccc(C(C)c2nc3n(n2)CCCOc2ccc(Oc4c(F)cc5[nH]ccc5c4F)cc2-3)c1F (stereo not shown) [Example 10, methyl 3-(3-(1-(11-((4,6-difluoro-1H-indol-5-yl)oxy)-6,7-dihydro-5H-benzo[b][1,2,4]triazolo[5,1-d][1,5]oxazocin-2-yl)ethyl)-2-fluorophenyl)propanoate] | C (C: ≤ 4° C.) | C (“C” refers to AUC @10 uM <= 4)
15 | CC(c1nc2n(n1)CCCOc1ccc(Oc3c(F)cc4[nH]ccc4c3F)cc1-2)c1cccc(CCC(=O)O)c1F (stereo not shown) [Example 11, 3-[3-[1-[14-[(4,6-difluoro-1H-indol-5-yl)oxy]-10-oxa-3,5,6-triazatricyclo[9.4.0.02,6]pentadeca-1(15),2,4,11,13-pentaen-4-yl]ethyl]-2-fluoro-phenyl]propanoic acid] | A (A: T ≥ 8° C.) | C (“C” refers to AUC @10 uM <= 4)
16 | CC(c1nc2n(n1)CC(CO)Oc1ccc(Oc3c(F)cc4[nH]ccc4c3F)cc1-2)c1cccc(CCC(=O)O)c1F (stereo not shown) [Example 12, 3-[3-[1-[10-[(4,6-difluoro-1H-indol-5-yl)oxy]-6-(hydroxymethyl)-5,6-dihydro-[1,2,4]triazolo[1,5-d][1,4]benzoxazepin-2-yl]ethyl]-2-fluoro-phenyl]propanoic acid] | A (A: T ≥ 8° C.) | –
